Assay results reported in US11053213B2, “Pharmaceutical compounds” (ALMAC DISCOVERY LIMITED, priority 2016, dated 2021).

Molecular target: USP19 (Homo sapiens (Human), UniProt O94966)
Test: USP19 activity assay (fluorescence polarisation, Ubiquitin-Lys-TAMRA substrate)
Type: biochemical
Conditions: full-length USP19 2.5 nM, 30 min pre-incubation, Ub substrate 500 nM; average of at least two duplicate experiments

Chain of USP19 (O94966 whole entry): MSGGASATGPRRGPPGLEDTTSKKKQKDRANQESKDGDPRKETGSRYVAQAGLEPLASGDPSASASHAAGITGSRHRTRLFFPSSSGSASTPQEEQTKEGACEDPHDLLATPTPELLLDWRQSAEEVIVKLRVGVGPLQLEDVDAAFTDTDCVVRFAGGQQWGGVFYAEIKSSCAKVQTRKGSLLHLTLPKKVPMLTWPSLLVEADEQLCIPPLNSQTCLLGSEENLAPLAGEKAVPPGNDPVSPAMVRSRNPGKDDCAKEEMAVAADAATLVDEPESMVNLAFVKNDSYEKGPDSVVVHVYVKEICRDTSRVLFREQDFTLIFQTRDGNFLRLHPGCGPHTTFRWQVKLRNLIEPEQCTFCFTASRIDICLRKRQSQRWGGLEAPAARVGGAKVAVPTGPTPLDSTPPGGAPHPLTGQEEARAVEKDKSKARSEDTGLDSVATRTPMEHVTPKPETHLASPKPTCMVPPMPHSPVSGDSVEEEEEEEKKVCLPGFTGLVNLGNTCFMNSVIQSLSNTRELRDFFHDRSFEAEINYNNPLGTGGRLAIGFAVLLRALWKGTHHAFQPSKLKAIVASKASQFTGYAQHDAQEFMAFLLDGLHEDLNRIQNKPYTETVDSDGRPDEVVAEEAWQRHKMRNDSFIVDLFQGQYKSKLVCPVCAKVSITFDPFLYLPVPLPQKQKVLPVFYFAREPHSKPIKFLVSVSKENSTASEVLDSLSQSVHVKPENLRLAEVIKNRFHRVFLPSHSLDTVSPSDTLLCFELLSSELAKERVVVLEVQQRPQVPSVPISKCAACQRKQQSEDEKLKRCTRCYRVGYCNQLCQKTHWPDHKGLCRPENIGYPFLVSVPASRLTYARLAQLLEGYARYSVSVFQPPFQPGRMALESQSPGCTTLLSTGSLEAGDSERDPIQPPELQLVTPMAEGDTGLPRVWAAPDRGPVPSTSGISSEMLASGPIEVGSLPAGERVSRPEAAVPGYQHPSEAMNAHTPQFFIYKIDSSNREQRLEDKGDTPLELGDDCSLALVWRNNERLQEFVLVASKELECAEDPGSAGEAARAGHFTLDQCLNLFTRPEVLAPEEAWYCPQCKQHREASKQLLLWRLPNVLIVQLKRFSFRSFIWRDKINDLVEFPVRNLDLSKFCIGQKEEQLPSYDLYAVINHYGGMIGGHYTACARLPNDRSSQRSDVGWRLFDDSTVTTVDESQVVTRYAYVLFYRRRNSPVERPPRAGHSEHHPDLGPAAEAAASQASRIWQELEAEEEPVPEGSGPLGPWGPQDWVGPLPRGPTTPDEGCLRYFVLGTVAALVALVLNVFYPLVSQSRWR

Row | SMILES | IC50 [µM]
1 | CC1(C)CN(C(=O)[C@H](CO)CC2CCC2)CCC1(O)Cn1cnc(-c2ccccc2F)cc1=O (stereo partly drawn) [Example 200, 3-((1-((S)-3-Cyclobutyl-2-(hydroxymethyl)propanoyl)-4-hydroxy-3,3-dimethylpiperidin-4-yl)methyl)-6-(2-fluorophenyl)pyrimidin-4(3H)-one] | 0.5 to 5
2 | CC(CC(C)(C)C)C(=O)N1CCC(O)(Cn2cnc(-c3ccccc3F)cc2=O)C(C)(C)C1 (centres unmarked) [Example 142, 6-(2-Fluorophenyl)-3-((4-hydroxy-3,3-dimethyl-1-(2,4,4-trimethylpentanoyl)piperidin-4-yl)methyl)pyrimidin-4(3H)-one] | 50 to 250
3 | C=C(C)c1cc(=O)n(CC2(O)CCN(C(=O)C[C@@H](C)c3ccccc3)CC2)cc1-c1ccccc1 [Example 12, (R)-1-((4-Hydroxy-1-(3-phenylbutanoyl)piperidin-4-yl)methyl)-5-phenyl-4-(prop-1-en-2-yl)pyridine-2(1H)-one] | 5 to 50
4 | CN(C)C(=O)c1cn(CC2(O)CCN(C(=O)c3cccn3Cc3ccccc3)CC23CCCC3)c(=O)cc1-c1ccccc1 (centres unmarked) [Example 198, 1-((7-(1-Benzyl-1H-pyrrole-2-carbonyl)-10-hydroxy-7-azaspiro[4.5]decan-10-yl)methyl)-N,N-dimethyl-6-oxo-4-phenyl-1,6-dihydropyridine-3-carboxamide] | 5 to 50
5 | CN(C)C(=O)c1cn(CC2(O)CCN(C(=O)C3CCC(F)(F)C3)CC23CCCC3)c(=O)cc1-c1ccccc1 (centres unmarked) [Example 202, 1-((7-(3,3-Difluorocyclopentane-1-carbonyl)-10-hydroxy-7-azaspiro[4.5]decan-10-yl)methyl)-N,N-dimethyl-6-oxo-4-phenyl-1,6-dihydropyridine-3-carboxamide] | 50 to 250
6 | C[C@H](CC(=O)N1CCC(O)(Cn2cc(-c3ccnn3C)c(-c3ccccc3)cc2=O)CC1)c1ccccc1 [Example 9, (R)-1-((4-Hydroxy-1-(3-phenylbutanoyl)piperidin-4-yl)methyl)-5-(1-methyl-1H-pyrazol-5-yl)-4-phenylpyridin-2(1H)-one] | 5 to 50
7 | C=C1CCC(C)(C(=O)N2CCC(O)(Cn3cnc(-c4ccccc4F)cc3=O)CC2)CC1 [Example 56, 6-(2-Fluorophenyl)-3-((4-hydroxy-1-(1-methyl-4-methylenecyclohexanecarbonyl)piperidin-4-yl)methyl)pyrimidin-4(3H)-one] | 5 to 50
8 | O=C(C(F)CC1CCCCC1)N1CCC(O)(Cn2cnc(-c3ccccc3F)cc2=O)CC1 (racemic) [Example 49, (R,S)-3-((1-(3-Cyclohexyl-2-fluoropropanoyl)-4-hydroxypiperidin-4-yl)methyl)-6-(2-fluorophenyl)pyrimidin-4(3H)-one] | 50 to 250
9 | C[C@H](CC1CCCCC1)C(=O)N1CC[C@](O)(Cn2cc(C(=O)N3CCNCC3)c(-c3ccccc3)cc2=O)C2(CCCC2)C1 [Example 210, 1-(((R)-7-((R)-3-Cyclohexyl-2-methylpropanoyl)-10-hydroxy-7-azaspiro[4.5]decan-10-yl)methyl)-4-phenyl-5-(piperazine-1-carbonyl)pyridin-2(1H)-one] | 5 to 50
10 | CN(C)C(=O)c1cn(C[C@]2(O)CCN(C(=O)[C@H](CO)CC3CCC3)CC2(C)C)c(=O)cc1-c1ccccc1 [Example 166, 1-(((S)-1-((S)-3-Cyclobutyl-2-(hydroxymethyl)propanoyl)-4-hydroxy-3,3-dimethylpiperidin-4-yl)methyl)-N,N-dimethyl-6-oxo-4-phenyl-1,6-dihydropyridine-3-carboxamide] | < 0.5
11 | C=CC[C@H](CC1CCCCC1)C(=O)N1CCC(O)(Cn2cnc(-c3ccccc3F)cc2=O)CC1 [Example 110, (R)-3-((1-(2-(Cyclohexylmethyl)pent-4-enoyl)-4-hydroxypiperidin-4-yl)methyl)-6-(2-fluorophenyl)pyrimidin-4(3H)-one] | 0.5 to 5
12 | C[C@H](CC1CCCCC1)C(=O)N1CCC(O)(Cn2cnc(-c3cccc(CN)c3)cc2=O)C(C)(C)C1 (stereo partly drawn) [Example 159, 6-(3-(Aminomethyl)phenyl)-3-((1-((R)-3-cyclohexyl-2-methylpropanoyl)-4-hydroxy-3,3-dimethylpiperidin-4-yl)methyl)pyrimidin-4(3H)-one] | 0.5 to 5
13 | C[C@H](CC1CCCCC1)C(=O)N1CCC(O)(Cn2cnc(-c3ccccc3F)cc2=O)C2(CCCC2)C1 (stereo partly drawn) [Example 119, 3-((7-((R)-3-Cyclohexyl-2-methylpropanoyl)-10-hydroxy-7-azaspiro[4.5]decan-10-yl)methyl)-6-(2-fluorophenyl)pyrimidin-4(3H)-one] | < 0.5
14 | CCCCC(CC)C(=O)N1CCC(O)(Cn2cc(C(=O)N(C)C(C)C)c(-c3ccccc3)cc2=O)CC1 (racemic) [Example 80, (R,S)-1-((1-(2-Ethylhexanoyl)-4-hydroxypiperidin-4-yl)methyl)-N-isopropyl-N-methyl-6-oxo-4-phenyl-1,6-dihydropyridine-3-carboxamide] | 5 to 50
15 | O=C(c1cn(C[C@]2(O)CCN(C(=O)C(CC(F)(F)F)CC(F)(F)F)CC23CCCC3)c(=O)cc1-c1ccccc1)N1CCNCC1 [Example 219, (S)-1-((10-Hydroxy-7-(4,4,4-trifluoro-2-(2,2,2-trifluoroethyl)butanoyl)-7-azaspiro[4.5]decan-10-yl)methyl)-4-phenyl-5-(piperazine-1-carbonyl)pyridin-2(1H)-one] | 0.5 to 5
16 | C[C@H](CC1CCCCC1)C(=O)N1CCC(O)(Cn2cnc(-c3ccccc3CO)cc2=O)C(C)(C)C1 (stereo partly drawn) [Example 137, 3-((1-((R)-3-Cyclohexyl-2-methylpropanoyl)-4-hydroxy-3,3-dimethylpiperidin-4-yl)methyl)-6-(2-(hydroxymethyl)phenyl)pyrimidin-4(3H)-one] | 0.5 to 5
17 | CC1(C)CN(C(=O)c2c[nH]nc2C2CCCCC2)CCC1(O)Cn1cnc(-c2ccccc2F)cc1=O (racemic) [Example 67, (R,S)-3-((1-(3-Cyclohexyl-1H-pyrazole-4-carbonyl)-4-hydroxy-3,3-dimethylpiperidin-4-yl)methyl)-6-(2-fluorophenyl)pyrimidin-4(3H)-one] | 5 to 50
18 | CC(C)N(C)C(=O)c1cn(CC2(O)CCN(C(=O)CCC3CCC3)CC2(C)C)c(=O)cc1-c1ccccc1 (racemic) [Example 79, (R,S)-1-((1-(3-Cyclobutylpropanoyl)-4-hydroxy-3,3-dimethylpiperidin-4-yl)methyl)-N-isopropyl-N-methyl-6-oxo-4-phenyl-1,6-dihydropyridine-3-carboxamide] | 0.5 to 5
19 | C[C@H](CC1CCCCC1)C(=O)N1CCC(O)(Cn2cc(C(=O)N3CCOCC3)c(-c3ccccc3)cc2=O)C(C)(C)C1 (stereo partly drawn) [Example 168, 1-((1-((R)-3-Cyclohexyl-2-methylpropanoyl)-4-hydroxy-3,3-dimethylpiperidin-4-yl)methyl)-5-(morpholine-4-carbonyl)-4-phenylpyridin-2(1H)-one] | < 0.5
20 | CC(CC1CCC1)C(=O)N1CCC(O)(Cn2cnc(-c3ccccc3F)cc2=O)CC1 (racemic) [Example 57, (R,S)-3-((1-(3-Cyclobutyl-2-methylpropanoyl)-4-hydroxypiperidin-4-yl)methyl)-6-(2-fluorophenyl)pyrimidin-4(3H)-one] | 5 to 50
21 | C[C@H](CC1CC1)C(=O)N1CCC(O)(Cn2cc(C(=O)N(C)C)c(-c3ccccc3)cc2=O)C(C)(C)C1 (stereo partly drawn) [Example 129, 1-((1-((R)-3-Cyclopropyl-2-methylpropanoyl)-4-hydroxy-3,3-dimethylpiperidin-4-yl)methyl)-N,N-dimethyl-6-oxo-4-phenyl-1,6-dihydropyridine-3-carboxamide] | 5 to 50
22 | C[C@H](CC(F)(F)F)C(=O)N1CC[C@@](O)(Cn2cc(C(=O)N3CCNCC3)c(-c3ccccc3F)cc2=O)C2(CCCC2)C1 [Example 225, 4-(2-Fluorophenyl)-1-(((S)-10-hydroxy-7-((R)-4,4,4-trifluoro-2-methylbutanoyl)-7-azaspiro[4.5]decan-10-yl)methyl)-5-(piperazine-1-carbonyl)pyridin-2(1H)-one] | 0.5 to 5
23 | C[C@H](CC(=O)N1CCC(O)(Cn2cc(-c3cnn(C)c3)c(-c3ccccc3)cc2=O)CC1)c1ccccc1 [Example 109, (R)-1-((4-Hydroxy-1-(3-phenylbutanoyl)piperidin-4-yl)methyl)-5-(1-methyl-1H-pyrazol-4-yl)-4-phenylpyridin-2(1H)-one] | 50 to 250
24 | CC(C)N(C)C(=O)c1cn(CC2(O)CCN(C(=O)C[C@@H](C)c3ccccc3)CC2)c(=O)cc1-c1ccccc1C#N [Example 38, (R)-4-(2-Cyanophenyl)-1-((4-hydroxy-1-(3-phenylbutanoyl)piperidin-4-yl)methyl)-N-isopropyl-N-methyl-6-oxo-1,6-dihydropyridine-3-carboxamide] | 50 to 250
25 | C[C@H](CC(=O)N1CCC(O)(Cn2cnc(-c3cccc4ccccc34)cc2=O)CC1)c1ccccc1 [Example 20, (R)-3-((4-Hydroxy-1-(3-phenylbutanoyl)piperidin-4-yl)methyl)-6-(naphthalen-1-yl)pyrimidin-4(3H)-one] | 5 to 50
26 | CC(Cn1cccn1)C(=O)N1CCC(O)(Cn2cnc(-c3ccccc3F)cc2=O)C(C)(C)C1 (centres unmarked) [Example 150, 6-(2-Fluorophenyl)-3-((4-hydroxy-3,3-dimethyl-1-(2-methyl-3-(1H-pyrazol-1-yl)propanoyl)piperidin-4-yl)methyl)pyrimidin-4(3H)-one] | 50 to 250
27 | C[C@@H]1CN(C(=O)c2cn(C[C@]3(O)CCN(C(=O)[C@H](C)CC4CCCCC4)CC3(C)C)c(=O)cc2-c2ccccc2)CCN1 [Example 213, 1-(((S)-1-((R)-3-Cyclohexyl-2-methylpropanoyl)-4-hydroxy-3,3-dimethylpiperidin-4-yl)methyl)-5-((R)-3-methylpiperazine-1-carbonyl)-4-phenylpyridin-2(1H)-one] | < 0.5
28 | C[C@H](CC(=O)N1CCC(O)(Cn2cc(-c3cncnc3)c(-c3ccccc3)cc2=O)CC1)c1ccccc1 [Example 103, (R)-1-((4-Hydroxy-1-(3-phenylbutanoyl)piperidin-4-yl)methyl)-4-phenyl-5-(pyrimidin-5-yl)pyridin-2(1H)-one] | 5 to 50
29 | C[C@H](CC1CCCCC1)C(=O)N1CCC(O)(Cn2cnc(-c3ccsc3)cc2=O)C(C)(C)C1 (stereo partly drawn) [Example 135, 3-((1-((R)-3-Cyclohexyl-2-methylpropanoyl)-4-hydroxy-3,3-dimethylpiperidin-4-yl)methyl)-6-(thiophen-3-yl)pyrimidin-4(3H)-one] | < 0.5
